Experimental data published in paper PMC3335078, “Length and Amino Acid Sequence of Peptides Substituted for the 5-HT3A Receptor M3M4 Loop May Affect Channel Expression and Desensitization” (PLoS ONE, 2012).

Assays:
[1] = target: T1, 5-HT3A ESQPA-M3M4 loop construct (Mus musculus, UniProt P23979); test: Two-electrode voltage clamp, oocytes expressing ESQPA-M3M4 loop construct; type: cell-based; conditions: up to 50 µM 5-HT, Xenopus oocytes
T1 construct: expressed in transfected cells; host or cells: Xenopus laevis oocytes injected with mRNA
T1 sequence (P23979 with tags, fused parts or gaps isoform P23979-2 limits assumed): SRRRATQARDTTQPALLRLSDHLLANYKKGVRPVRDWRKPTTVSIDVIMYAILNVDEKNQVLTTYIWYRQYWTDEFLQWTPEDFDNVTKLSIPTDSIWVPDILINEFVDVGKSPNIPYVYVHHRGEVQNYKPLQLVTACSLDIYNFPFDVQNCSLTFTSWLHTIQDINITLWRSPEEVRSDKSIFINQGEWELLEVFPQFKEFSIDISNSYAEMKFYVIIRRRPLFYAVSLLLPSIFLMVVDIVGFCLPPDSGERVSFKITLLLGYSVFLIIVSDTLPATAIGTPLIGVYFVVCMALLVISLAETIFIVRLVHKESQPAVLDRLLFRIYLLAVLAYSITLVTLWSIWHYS
From the text: (§1) The mouse 5-HT3A cDNA with an N-terminal V5 epitope tag was cloned into the pXOON vector as previously described, and is referred to in this paper as “wild-type” (WT). The starting construct for all of the M3M4 loop replacement constructs used in this work was the 5-HT3A-ΔM3M4 construct formed by splicing the cytoplasmic end of M3 (M3-LVHK/QDLQRP…) to the cytoplasmic end of M4 (…WLRVGY/VLDRLL-M4). The splice was made at the site of the “/” to yield the sequence M3-LVHK/VLDRLL-M4 [34]. This removed 115 residues predicted to form the M3M4 loop.
(§2) The construction of the 5-HT3A-glvM3M4 chimera with the 5-HT3A M3M4 loop replaced by the GLIC heptapeptide M3M4 loop (SQPARAA) was described previously. Point mutations, alanine and Gly-Ser-Ala insertions into the 5-HT3A-ΔM3M4 construct were generated with the Quikchange site directed mutagenesis procedure (Stratagene, La Jolla, CA). […]
(§3) Currents were recorded under two-electrode voltage clamp from oocytes 2–5 d post-injection as described previously. […]
(§4) Desensitization rates were determined by fitting a single exponential decay function to the current data with Prism 4 software (GraphPad Software). Significant differences compared with wild-type were determined by a one-way ANOVA (p<0.05) using Dunnett's multiple comparison post-hoc test (p<0.05). […]

[2] = target: T2, 5-HT3A receptor wild-type (Mus musculus, UniProt P23979); test: Radioactive 5-HT binding to oocytes expressing WT 5-HT3A; conditions: 150 nM [3H]5-HT + 10 µM 5-HT, 5 min room temperature, 45 s cold wash
T2 construct: unrelated to the structural/functional states accessible to a normal full-length 5-HT3A receptor; expressed in transfected cells; host or cells: Xenopus laevis oocytes injected with mRNA
T2 sequence (P23979 24-483 isoform P23979-2 limits assumed): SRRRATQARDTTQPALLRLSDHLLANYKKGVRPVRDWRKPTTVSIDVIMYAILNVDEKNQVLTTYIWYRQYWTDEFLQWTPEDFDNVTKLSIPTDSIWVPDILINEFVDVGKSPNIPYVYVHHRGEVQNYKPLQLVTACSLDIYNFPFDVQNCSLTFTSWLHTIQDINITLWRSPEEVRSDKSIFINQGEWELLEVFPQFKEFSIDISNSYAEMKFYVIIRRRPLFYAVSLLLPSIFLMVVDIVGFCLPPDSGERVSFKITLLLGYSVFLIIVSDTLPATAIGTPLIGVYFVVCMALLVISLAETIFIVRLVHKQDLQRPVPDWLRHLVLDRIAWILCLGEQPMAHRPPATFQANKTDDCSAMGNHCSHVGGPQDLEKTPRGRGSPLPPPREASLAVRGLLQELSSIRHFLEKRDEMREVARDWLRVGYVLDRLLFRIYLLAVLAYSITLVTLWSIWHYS
Experimental: Assays were terminated by five washes with ice cold CFFR buffer, followed by solubilization of the oocytes individually with 200 µl 5% SDS. Total wash time was 45 s. […] All data points represent the average of at least fifteen individual oocytes derived from three separate oocyte isolations.
To determine the extent of non-specific binding, all binding experiments were performed in parallel with diethylpyrocarbonate-(DEPC)-treated-water injected oocytes or uninjected oocytes.

[3] = target: T3, 5-HT3A M3M4 loop GSAGSAGSA mutant (Mus musculus, UniProt P23979); test: Two-electrode voltage clamp, oocytes expressing […] M3M4 mutant; type: cell-based; conditions: Xenopus oocytes
T3 construct: expressed in transfected cells; host or cells: Xenopus laevis oocytes injected with mRNA
T3 sequence (P23979 with tags, fused parts or gaps isoform P23979-2 limits assumed, change not shown): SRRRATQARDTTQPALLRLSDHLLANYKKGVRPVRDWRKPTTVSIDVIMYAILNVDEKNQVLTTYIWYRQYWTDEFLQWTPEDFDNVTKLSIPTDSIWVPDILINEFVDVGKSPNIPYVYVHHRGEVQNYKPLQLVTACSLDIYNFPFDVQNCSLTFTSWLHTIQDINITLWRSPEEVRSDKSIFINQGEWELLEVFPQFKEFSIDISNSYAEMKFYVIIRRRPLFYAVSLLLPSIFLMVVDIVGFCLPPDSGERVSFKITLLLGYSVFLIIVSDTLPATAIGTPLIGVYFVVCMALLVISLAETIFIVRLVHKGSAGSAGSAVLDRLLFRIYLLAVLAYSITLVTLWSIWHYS
From the text: as §1, §2, §3, §4

[4] = target: T4, 5-HT3A-A5 (M3M4 loop replaced by five alanines) (Mus musculus, UniProt P23979); test: Two-electrode voltage clamp, oocytes expressing 5-HT3A-A5; type: cell-based
T4 construct: expressed in transfected cells; host or cells: Xenopus laevis oocytes injected with mRNA
T4 sequence (P23979 with tags, fused parts or gaps isoform P23979-2 limits assumed): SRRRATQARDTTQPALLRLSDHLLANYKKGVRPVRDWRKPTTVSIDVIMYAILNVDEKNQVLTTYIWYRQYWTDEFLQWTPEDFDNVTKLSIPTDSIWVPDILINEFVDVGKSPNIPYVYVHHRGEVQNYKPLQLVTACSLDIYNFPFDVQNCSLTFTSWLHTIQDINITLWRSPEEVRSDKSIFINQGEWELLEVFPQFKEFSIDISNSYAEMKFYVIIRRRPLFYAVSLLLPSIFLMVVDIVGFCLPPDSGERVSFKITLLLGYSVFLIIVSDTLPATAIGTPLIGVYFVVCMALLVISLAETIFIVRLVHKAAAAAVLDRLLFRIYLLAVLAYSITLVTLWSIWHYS
From the text: as §1
(§5) The construction of the 5-HT3A-glvM3M4 chimera with the 5-HT3A M3M4 loop replaced by the GLIC heptapeptide M3M4 loop (SQPARAA) was described previously. Point mutations, alanine and Gly-Ser-Ala insertions into the 5-HT3A-ΔM3M4 construct were generated with the Quikchange site directed mutagenesis procedure (Stratagene, La Jolla, CA). The entire coding region of all mutant constructs was verified by DNA sequencing (Albert Einstein College of Medicine DNA Sequencing Facility). The pXOON plasmid was linearized using NheI and capped mRNA prepared with T7 RNA polymerase (mMessage mMachine, Ambion, Austin, TX).
Use of Xenopus laevis in this study was carried out in strict accordance with the recommendations in the Guide for the Care and Use of Laboratory Animals of the National Institutes of Health. The protocol was approved by the Albert Einstein College of Medicine Animal Care and Use Committee (Protocol Number: 20081201). All surgery was performed under tricaine anesthesia, and all efforts were made to minimize suffering. Oocyctes were harvested from Xenopus (Nasco Science, Fort Atkinson, WI) anesthetized with 0.15% tricaine. […]
as §3, §4

[5] = target: T5, 5-HT3A M3M4 loop GSAGSA mutant (Mus musculus, UniProt P23979); test: Two-electrode voltage clamp, oocytes expressing GSAGSA M3M4 mutant; type: cell-based; conditions: 10 µM 5-HT, Xenopus oocytes
T5 construct: expressed in transfected cells; host or cells: Xenopus laevis oocytes injected with mRNA
T5 sequence (P23979 with tags, fused parts or gaps isoform P23979-2 limits assumed, change not shown): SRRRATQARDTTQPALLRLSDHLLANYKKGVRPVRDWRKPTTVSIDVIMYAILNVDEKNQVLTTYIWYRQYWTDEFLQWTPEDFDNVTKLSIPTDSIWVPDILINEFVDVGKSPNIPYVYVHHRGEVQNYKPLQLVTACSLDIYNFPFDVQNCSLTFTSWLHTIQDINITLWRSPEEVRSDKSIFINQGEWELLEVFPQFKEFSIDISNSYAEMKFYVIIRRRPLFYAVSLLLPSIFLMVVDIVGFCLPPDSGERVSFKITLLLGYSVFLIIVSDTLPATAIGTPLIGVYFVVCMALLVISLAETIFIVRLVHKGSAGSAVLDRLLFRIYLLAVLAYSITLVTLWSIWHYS
From the text: as §1, §2, §3, §4

[6] = target: T6, 5-HT3A M3M4 loop GSA mutant (Mus musculus, UniProt P23979, DELINS338-452GSA); test: Two-electrode voltage clamp, oocytes expressing GSA M3M4 mutant; type: cell-based; conditions: 10 µM 5-HT, Xenopus oocytes
T6 construct: expressed in transfected cells; host or cells: Xenopus laevis oocytes injected with mRNA
T6 sequence (P23979 with tags, fused parts or gaps isoform P23979-2 DELINS338-452GSA limits assumed): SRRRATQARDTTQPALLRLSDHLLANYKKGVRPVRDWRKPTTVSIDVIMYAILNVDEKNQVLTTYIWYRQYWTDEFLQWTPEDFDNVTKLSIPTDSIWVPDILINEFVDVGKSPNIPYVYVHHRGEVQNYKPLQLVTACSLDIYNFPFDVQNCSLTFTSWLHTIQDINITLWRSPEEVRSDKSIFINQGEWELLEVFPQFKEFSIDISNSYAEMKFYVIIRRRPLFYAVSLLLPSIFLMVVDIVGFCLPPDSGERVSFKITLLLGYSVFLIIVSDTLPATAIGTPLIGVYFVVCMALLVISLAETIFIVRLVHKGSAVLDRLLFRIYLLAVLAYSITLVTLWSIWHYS
From the text: as §1, §2, §3, §4

[7] = target: T7, 5-HT3A-A3 (M3M4 loop replaced by three alanines) (Mus musculus, UniProt P23979, DELINS338-452AAA); test: Two-electrode voltage clamp, oocytes expressing 5-HT3A-A3; type: cell-based
T7 construct: expressed in transfected cells; host or cells: Xenopus laevis oocytes injected with mRNA
T7 sequence (P23979 with tags, fused parts or gaps isoform P23979-2 DELINS338-452AAA limits assumed): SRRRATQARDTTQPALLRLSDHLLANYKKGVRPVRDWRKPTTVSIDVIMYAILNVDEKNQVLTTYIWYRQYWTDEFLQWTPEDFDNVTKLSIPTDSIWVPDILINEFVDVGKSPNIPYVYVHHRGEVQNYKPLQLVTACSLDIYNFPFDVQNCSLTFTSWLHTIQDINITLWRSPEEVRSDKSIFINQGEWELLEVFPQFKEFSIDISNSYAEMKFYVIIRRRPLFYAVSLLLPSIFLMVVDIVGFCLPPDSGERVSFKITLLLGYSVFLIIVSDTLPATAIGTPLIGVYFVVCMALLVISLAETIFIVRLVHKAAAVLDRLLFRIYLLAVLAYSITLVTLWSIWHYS
From the text: as §1, §5
Use of Xenopus laevis in this study was carried out in strict accordance with the recommendations in the Guide for the Care and Use of Laboratory Animals of the National Institutes of Health. The protocol was approved by the Albert Einstein College of Medicine Animal Care and Use Committee (Protocol Number: 20081201). All surgery was performed under tricaine anesthesia, and all efforts were made to minimize suffering. Oocyctes were harvested from Xenopus (Nasco Science, Fort Atkinson, WI) anesthetized with 0.15% tricaine. Oocyctes were defolliculated by incubation in 2 mg ml^−1 Type 1A collagenase (Sigma-Aldrich, St. Louis, MO) in OR2 (85 mM NaCl, 2 mM KCl, 1 mM MgCl2, and 5 mM HEPES; pH adjusted to 7.5 with NaOH) for a 60 or 75 min. Oocytes were washed in OR2 and stored at 16°C in SOS medium: 100 mM NaCl, 2 mM KCl, 1 mM MgCl2, 1.8 mM CaCl2 5 mM HEPES, pH 7.5 with 100 IU ml^−1 penicillin, 100 µg ml^−1 streptomycin, and 250 ng ml^−1 amphotericin B (Invitrogen, Carlsbad, CA) and 5% horse serum (Sigma-Aldrich). 24 hrs following isolation, oocyctes were injected with 23 nl (2.3 ng) of mRNA and were kept in SOS media for 2–5 d at 16°C.
Currents were recorded under two-electrode voltage clamp from oocytes 2–5 d post-injection as described previously. […] The perfusion chamber volume was 200 µl. […]
as §4

[8] = 10 µM 5-HT, Xenopus oocytes, -60 mV
[9] = prolonged 10 µM 5-HT, may be limited by solution exchange

With NCCc1c[nH]c2ccc(O)cc12 [5-HT, 5-hydroxytryptamine] the 5-HT induced current [1] was “no currents were observed”, the “Radiolabeled 5-HT bound per oocyte” value [2] was 2.50±0.3 pmol per oocyte and the 5-HT induced current [3] was “no detectable currents”. For the same compound, the “10–90% Activation rise time” value ([4]; 10 µM 5-HT) was 797 ± 108 ms, the “Imax (peak current)” value [4, 8] was 2500±500 nA and the “Desensitization time constant τ” value [4, 9] was 6 ± 1 s. The 5-HT induced current [5] was 730±45 nA, the 5-HT induced current [6] was 50±12 nA and the “nH (Hill coefficient)” value [7] was 2.6±0.4. The “10–90% Activation rise time” value ([7]; 10 µM 5-HT) was 621 ± 47 ms, the “Imax (peak current)” value [7, 8] was 6300±800 nA and the “Desensitization time constant τ” value [7, 9] was 8 ± 2 s.
